Measured values from patent US20210317140A1, “Heterocyclic Compounds and Methods of Use” (MEDIVATION TECHNOLOGIES, INC, priority 2013, published 2021).
Where “and” joins values, the source holds several entries; their conditions need not be identical. Equal values may be shown once.

Legend:
PI3Kδ = target: T1, PI3Kδ (Homo sapiens, UniProt O00329); assay: PI3Kδ kinase assay (HTRF, PIP3 detection); assay type: biochemical; details: for IC50: 10 dose IC50, 10 μM ATP; for PI3Kδ @ 0.1 μM (% Inh): 0.1 μM compound; for PI3Kδ @ 0.1 μM (% Inh) / PI3Kδ @ 1 μM (% Inh): 10 μM ATP; for PI3Kδ @ 1 μM (% Inh): 1 μM compound
T1 construct: purchased Reaction Biology Corporation
From the text: (§1) Compounds of the invention were profiled in a 10 dose IC50 panel against BTK and PI3Kδ, both provided by Reaction Biology Corporation.
PI3Kδ assay: The PIP3 product is detected by displacement of biotin-PIP3 from an energy transfer complex consisting of Europium labeled anti-GST monoclonal antibody, a GST-tagged pleckstrin homology (PH) domain, biotinylated PIP3 and Streptavidin-Allophycocyanin (APC). […] The PIP3 product formed by PI 3-Kinase(h) activity displaces biotin-PIP3 from the complex resulting in a loss of energy transfer and thus a decrease in signal. This is a 3-step reaction: First, the kinase reaction with PIP2 substrate is carried out in the presence of ATP (10 μM), and the reaction is quenched with stop Solution, and then finally detect by adding Detection Mixture followed by incubation (10 min). Reaction procedure: 1) Prepare substrate in freshly prepared Reaction Buffer. 2) Deliver kinase into the substrate solution and gently mix. 3) Deliver compounds in 100% DMSO (1 μM) into the kinase reaction mixture by Acoustic technology (Echo550; nanoliter range), incubate for 10 min at RT. 4) Deliver ATP into the reaction mixture to initiate the reaction. 5) Incubate for 30 min at 30° C. 6) Quench the reaction with Stop Solution. 7) Add Detection Mixture, and incubate for overnight. […] The emission ratio is converted into μM PIP3 production based on PIP3 standard curves. The nonlinear regression to obtain the standard curve and IC50 values are performed using Graphpad Prism software. Assay Buffer: HEPES 50 mM (pH7.0), NaN3 0.02%, BSA 0.01%, Orthovanadate 0.1 mM, 1% DMSO. Detection buffer: HEPES 10 mM (pH7.0), BSA 0.02%, KF 0.16 M, EDTA 4 mM. Substrate: 10 μM PIP2 substrate (PI(4,5)P2).

BTK = target: T2, BTK (Homo sapiens, UniProt Q06187); assay: BTK kinase assay (HotSpot, 33P ATP); assay type: biochemical; details: for IC50: 10 dose IC50, 10 μM ATP; for BTK @ 0.1 μM (% Inh): 0.1 μM compound; for BTK @ 0.1 μM (% Inh) / BTK @ 1 μM (% Inh): 10 μM ATP; for BTK @ 1 μM (% Inh): 1 μM compound
T2 construct: purchased Reaction Biology Corporation
Method: as §1
BTK assay: In vitro profiling protein kinases was performed using the “HotSpot” assay platform. Briefly, specific kinase/substrate pairs along with required cofactors were prepared in reaction buffer. Compounds were prepared as 10 mM stock solutions in DMSO. Compounds were delivered into the reaction, followed 15-20 minutes later by addition of a mixture of ATP (Sigma, St. Louis Mo.) and ^33P ATP (Perkin Elmer, Waltham Mass.) to a final concentration of 10 μM. […] IC50 values and curve fits were obtained using Prism (GraphPad Software). Buffer Conditions: 20 mM Hepes (pH 7.5), 10 mM MgCl2, 1 mM EGTA, 0.02% Brij35, 0.02 mg/mL BSA, 0.1 mM Na3VO4, 2 mM DTT, 1% DMSO.

T2 sequence (Q06187 whole entry): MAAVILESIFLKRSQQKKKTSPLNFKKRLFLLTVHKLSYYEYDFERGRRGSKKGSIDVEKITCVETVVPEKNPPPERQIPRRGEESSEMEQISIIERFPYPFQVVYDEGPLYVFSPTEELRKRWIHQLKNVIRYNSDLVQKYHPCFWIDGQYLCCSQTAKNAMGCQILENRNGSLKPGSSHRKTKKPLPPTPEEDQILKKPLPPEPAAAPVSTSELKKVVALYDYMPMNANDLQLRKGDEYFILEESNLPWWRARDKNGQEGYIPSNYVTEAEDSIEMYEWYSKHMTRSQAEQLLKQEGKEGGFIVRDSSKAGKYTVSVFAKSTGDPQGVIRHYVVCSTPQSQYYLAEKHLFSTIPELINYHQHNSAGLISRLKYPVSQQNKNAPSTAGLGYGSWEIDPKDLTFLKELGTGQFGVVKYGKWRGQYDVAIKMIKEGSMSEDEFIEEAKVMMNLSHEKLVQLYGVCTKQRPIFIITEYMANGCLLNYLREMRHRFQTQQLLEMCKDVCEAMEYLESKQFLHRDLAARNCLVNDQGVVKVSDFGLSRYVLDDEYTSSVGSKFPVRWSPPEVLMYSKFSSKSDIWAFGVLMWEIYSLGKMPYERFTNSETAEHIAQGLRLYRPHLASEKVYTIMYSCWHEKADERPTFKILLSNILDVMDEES
T1 sequence (O00329 whole entry): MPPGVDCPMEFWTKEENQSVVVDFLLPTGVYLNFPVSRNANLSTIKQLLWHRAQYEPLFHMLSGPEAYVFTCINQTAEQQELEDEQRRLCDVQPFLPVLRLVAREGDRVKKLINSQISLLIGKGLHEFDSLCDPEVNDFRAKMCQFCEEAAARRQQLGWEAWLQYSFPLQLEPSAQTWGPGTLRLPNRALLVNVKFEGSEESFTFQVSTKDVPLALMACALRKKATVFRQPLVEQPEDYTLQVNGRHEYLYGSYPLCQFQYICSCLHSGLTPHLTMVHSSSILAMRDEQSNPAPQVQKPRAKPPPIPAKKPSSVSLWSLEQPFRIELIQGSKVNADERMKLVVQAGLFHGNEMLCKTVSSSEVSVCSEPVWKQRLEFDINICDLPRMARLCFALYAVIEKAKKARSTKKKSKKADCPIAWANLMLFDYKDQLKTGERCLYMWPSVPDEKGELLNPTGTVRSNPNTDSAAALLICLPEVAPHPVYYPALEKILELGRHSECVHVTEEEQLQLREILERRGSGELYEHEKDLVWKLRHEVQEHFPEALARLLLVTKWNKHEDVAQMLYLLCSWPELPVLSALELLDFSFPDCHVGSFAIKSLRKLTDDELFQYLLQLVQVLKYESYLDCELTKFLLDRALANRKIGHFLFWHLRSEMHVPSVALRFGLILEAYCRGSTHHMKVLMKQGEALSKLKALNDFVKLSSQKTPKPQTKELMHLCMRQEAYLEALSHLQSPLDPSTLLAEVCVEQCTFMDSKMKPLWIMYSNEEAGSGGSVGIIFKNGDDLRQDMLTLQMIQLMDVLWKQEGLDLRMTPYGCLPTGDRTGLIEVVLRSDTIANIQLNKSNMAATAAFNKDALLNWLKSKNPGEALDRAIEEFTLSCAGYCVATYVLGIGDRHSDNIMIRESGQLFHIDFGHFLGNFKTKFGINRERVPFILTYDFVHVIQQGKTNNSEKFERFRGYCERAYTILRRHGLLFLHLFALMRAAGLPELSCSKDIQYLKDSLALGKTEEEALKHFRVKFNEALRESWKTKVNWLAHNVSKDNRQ
T1 sequence (P27986 whole entry partner): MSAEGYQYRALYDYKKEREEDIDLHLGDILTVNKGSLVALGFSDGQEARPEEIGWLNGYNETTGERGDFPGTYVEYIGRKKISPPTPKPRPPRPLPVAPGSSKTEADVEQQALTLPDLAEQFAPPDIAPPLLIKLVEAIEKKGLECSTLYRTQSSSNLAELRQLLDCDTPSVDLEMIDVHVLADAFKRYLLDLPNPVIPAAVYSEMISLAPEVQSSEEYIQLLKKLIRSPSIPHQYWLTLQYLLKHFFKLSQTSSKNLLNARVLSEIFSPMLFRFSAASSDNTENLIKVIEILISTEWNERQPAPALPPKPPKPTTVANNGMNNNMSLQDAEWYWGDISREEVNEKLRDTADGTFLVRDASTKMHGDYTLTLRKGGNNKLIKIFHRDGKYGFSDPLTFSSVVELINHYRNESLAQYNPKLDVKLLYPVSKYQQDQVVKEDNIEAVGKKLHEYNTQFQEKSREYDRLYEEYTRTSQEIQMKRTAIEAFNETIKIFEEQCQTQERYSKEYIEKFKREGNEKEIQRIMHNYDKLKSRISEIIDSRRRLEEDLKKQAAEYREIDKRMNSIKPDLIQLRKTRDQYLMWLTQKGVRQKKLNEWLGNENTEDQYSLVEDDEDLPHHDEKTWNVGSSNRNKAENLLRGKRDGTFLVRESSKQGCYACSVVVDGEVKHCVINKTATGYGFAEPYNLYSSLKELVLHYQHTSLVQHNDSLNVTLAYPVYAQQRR

Structure (SMILES)	IC50 (PI3Kδ)	IC50 (BTK)	PI3Kδ @ 0.1 μM (% Inh) (PI3Kδ)	BTK @ 0.1 μM (% Inh) (BTK)	PI3Kδ @ 1 μM (% Inh) (PI3Kδ)	BTK @ 1 μM (% Inh) (BTK)
COc1ccc(-c2nn(C3CCc4ccccc4C3)c3ncnc(N)c23)cc1F (racemic) [Compound No. 14, 3-(3-fluoro-4-methoxyphenyl)-1-(1,2,3,4-tetrahydronaphthalen-2-yl)-1H-pyrazolo[3,4-d]pyrimidin-4-amine]	7.9 nM	217 nM				
Nc1ncnc2c1c(-c1ccc3cn[nH]c3c1)nn2C1CCc2ccccc2C1 (racemic) [compound 9, 3-(1H-indazol-6-yl)-1-(1,2,3,4-tetrahydronaphthalen-2-yl)-1H-pyrazolo[3,4-d]pyrimidin-4-amine]			44.86 % Inh	15.85 % Inh		
Nc1ncnc2c1c(-c1ccc(F)cc1)nn2C1CCc2ccccc2C1 (racemic) [compound 13, 3-(4-fluorophenyl)-1-(1,2,3,4-tetrahydronaphthalen-2-yl)-1H-pyrazolo[3,4-d]pyrimidin-4-amine]	2390 nM	69.8 nM				
Nc1ncnc2c1c(-c1cnc3[nH]ccc3c1)nn2C1CCc2ccccc2C1 (racemic) [compound 16, 3-(1H-pyrrolo[2,3-b]pyridin-5-yl)-1-(1,2,3,4-tetrahydronaphthalen-2-yl)-1H-pyrazolo[3,4-d]pyrimidin-4-amine]			51.94 % Inh	24.0 % Inh		
Nc1ncnc2c1c(-c1cn[nH]c1)nn2C1CCc2ccccc2C1 (racemic) [compound 20, 3-(1H-pyrazol-4-yl)-1-(1,2,3,4-tetrahydronaphthalen-2-yl)-1H-pyrazolo[3,4-d]pyrimidin-4-amine]	157 nM	2020 nM				
Nc1ncnc2c1c(-c1ccc(O)cc1)nn2C1CCc2ccccc2C1 (racemic) [compound 21, 4-(4-amino-1-(1,2,3,4-tetrahydronaphthalen-2-yl)-1H-pyrazolo[3,4-d]pyrimidin-3-yl)phenol]	104 nM	192 nM				
COc1ccc(-c2nn(C3CCc4ccccc4C3)c3ncnc(N)c23)cc1F (single isomer, unassigned) [Compound No. 14a, 3-(3-fluoro-4-methoxyphenyl)-1-(1,2,3,4-tetrahydronaphthalen-2-yl)-1H-pyrazolo[3,4-d]pyrimidin-4-amine]	102 nM	784 nM				
Nc1ncnc2c1c(/C=C/CO)nn2C1Cc2ccccc2C1 (single isomer, unassigned) [Compound No. 64, (2E)-3-[4-amino-1-(2,3-dihydro-1H-inden-2-yl)-1H-pyrazolo[3,4-d]pyrimidin-3-yl]prop-2-en-1-ol]			0.0 % Inh	2.74 % Inh	4.07 % Inh	5.76 % Inh
Nc1ncnc2c1c(CCCO)nn2C1Cc2ccccc2C1 (single isomer, unassigned) [Compound No. 65, 3-[4-amino-1-(2,3-dihydro-1H-inden-2-yl)-1H-pyrazolo[3,4-d]pyrimidin-3-yl]propan-1-ol]			−4.81 % Inh	4.02 % Inh	11.18 % Inh	7.69 % Inh
Nc1ncnc2c1c(-c1ccc(Br)c(O)c1)nn2C1CCc2ccccc21 (stereo not shown) [36b, 5-[4-amino-1-(2,3-dihydro-1H-inden-1-yl)-1H-pyrazolo[3,4-d]pyrimidin-3-yl]-2-bromophenol]	155 nM	123 nM	40.07 % Inh	33.82 % Inh	79.26 % Inh	76.93 % Inh
COc1ccc(-c2nn(C3Cc4ccccc4C3)c3ncnc(N)c23)cc1OC [Compound No. 35, 1-(2,3-dihydro-1H-inden-2-yl)-3-(3,4-dimethoxyphenyl)-1H-pyrazolo[3,4-d]pyrimidin-4-amine]				29.9 % Inh		
Nc1ncnc2c1c(-c1ccc3cc[nH]c3c1)nn2C1Cc2ccccc2C1 [Compound No. 39, 1-(2,3-dihydro-1H-inden-2-yl)-3-(1H-indol-6-yl)-1H-pyrazolo[3,4-d]pyrimidin-4-amine]			24.12 % Inh and 30.2 % Inh	45.81 % Inh and 37.23 % Inh	67.63 % Inh	87.24 % Inh
Nc1ncnc2c1c(-c1cccc(O)c1)nn2C1Cc2ccccc2C1 [Compound No. 40, 3-[4-amino-1-(2,3-dihydro-1H-inden-2-yl)-1H-pyrazolo[3,4-d]pyrimidin-3-yl]phenol]			41.21 % Inh	66.35 % Inh		
Nc1ncnc2c1c(-c1ccc(C(F)(F)F)c(OCc3ccccc3)c1)nn2C1Cc2ccccc2C1 [Compound No. 43, 3-[3-(benzyloxy)-4-(trifluoromethyl)phenyl]-1-(2,3-dihydro-1H-inden-2-yl)-1H-pyrazolo[3,4-d]pyrimidin-4-amine]			11.31 % Inh	3.54 % Inh	11.07 % Inh	−0.8 % Inh
Nc1cccc(-c2nn(C3Cc4ccccc4C3)c3ncnc(N)c23)c1 [Compound No. 45, 3-(3-aminophenyl)-1-(2,3-dihydro-1H-inden-2-yl)-1H-pyrazolo[3,4-d]pyrimidin-4-amine]			12.84 % Inh	49.32 % Inh	44.54 % Inh	87.47 % Inh
Cc1ccc(-c2nn(C3Cc4ccccc4C3)c3ncnc(N)c23)cc1N [Compound No. 46, 3-(3-amino-4-methylphenyl)-1-(2,3-dihydro-1H-inden-2-yl)-1H-pyrazolo[3,4-d]pyrimidin-4-amine]	1290 nM	21.2 nM	30.55 % Inh	85.71 % Inh	67.34 % Inh	96.3 % Inh
Nc1ncnc2c1c(-c1ccc3[nH]cnc3c1)nn2C1Cc2ccccc2C1 [Compound No. 47, 3-(1H-1,3-benzodiazol-5-yl)-1-(2,3-dihydro-1H-inden-2-yl)-1H-pyrazolo[3,4-d]pyrimidin-4-amine]			78.41 % Inh	9.61 % Inh	100.0 % Inh	48.47 % Inh
Nc1ncnc2c1c(N1CCOCC1)nn2C1Cc2ccccc2C1 [Compound No. 48, 1-(2,3-dihydro-1H-inden-2-yl)-3-(morpholin-4-yl)-1H-pyrazolo[3,4-d]pyrimidin-4-amine]			7.12 % Inh	1.56 % Inh	11.95 % Inh	16.21 % Inh
COc1cc(-c2nn(C3Cc4ccccc4C3)c3ncnc(N)c23)ccn1 [Compound No. 50, 1-(2,3-dihydro-1H-inden-2-yl)-3-(2-methoxypyridin-4-yl)-1H-pyrazolo[3,4-d]pyrimidin-4-amine]	362 nM	1260 nM	39.05 % Inh	21.32 % Inh	79.98 % Inh	66.77 % Inh
Nc1ncnc2c1c(-c1ccnc(O)c1)nn2C1Cc2ccccc2C1 [Compound No. 52, 4-[4-amino-1-(2,3-dihydro-1H-inden-2-yl)-1H-pyrazolo[3,4-d]pyrimidin-3-yl]pyridin-2-ol]			6.493 % Inh	9.25 % Inh	37.25 % Inh	24.21 % Inh
